The text below walks through data of PMC12186697, “HypoxyStat, a small-molecule form of hypoxia therapy that increases oxygen-hemoglobin affinity” (Cell, 2025).

Each structure is given as a SMILES string. “And” between values parts separate entries of the source, which are not always exact repeats. Equal entries are not always repeated.

Series [1] concerns Hb. Also noted: method as in PMID 28337324. To be noted: Figure 2A; cited from earlier work.
Series [2] concerns hypoxia transcriptional response (HIF). Description: Hypoxia biomarkers in mice (plasma Epo, hematocrit, blood glucose, hypoxia-induced brain transcripts). The format is in vivo, mouse. To be noted: GBT-440. As for the experimental part: Plasma Epo measurements were performed with R&D Systems Epo Elisa Kit (MEP00B) according to manufacturer directions. Briefly, whole blood was collected with anticoagulant before centrifugation within 30 minutes of collection and stored at −80C until day of analysis. On the day of Epo assay, samples were thawed and diluted 2-fold and incubated in the assay plate for two hours. Each well was washed five times before the addition of Epo Conjugate followed by a two-hour incubation. Each well was washed five times before adding Substrate Solution to develop for 30 minutes before addition of Stop Solution. The optical density of each well was determined at 450nm and correction wavelength of 540/570.
Hematocrit was determined with an iStat VetScan 1 with Zoetis Chem 8+ cartridges. Blood glucose measurements were performed using OneTouch UltraPlus glucometer. Whole blood chemistry measurements were performed on a VetScan HM5.
Half of the hindbrain was collected at necropsy and immediately flash frozen. For RNA extraction, a stainless-steel bead (Qiagen) and 1 mL TRIzol™ Reagent (Thermo Fisher Scientific) were added to the frozen samples, which were rapidly lysed using a tissue lyser (Qiagen) for five 1-minute cycles of 30 Hz frequency. Subsequent steps for RNA isolation were identical as previously described.[9] Reverse transcription was performed using the QuantiTect Reverse Transcription Kit (Qiagen) instructions. Briefly, gDNA was wiped out from samples containing 1 μg RNA. gDNA-free RNA samples were reverse transcribed following Qiagen’s instructions. […] For each set of triplicates, an average CT value was obtained, and the difference in average CT between the target gene and β-actin was calculated (ΔCT). Next, the difference in ΔCT value between each sample and the average of the normoxia samples was calculated (ΔΔCT). Relative expression of each gene was determined by calculating 2^−ΔΔCT.

Series [3] deals with T1, hemoglobin (Hb) in human red blood cells (Homo sapiens, UniProt P69905).
T1 construct: incubated for at least one hour at 37C with whole blood before Hemox analysis; endogenous in cells; host or cells: human red blood cells / whole blood
Description: Oxy-hemoglobin dissociation curve (Hemox Analyzer), p50. It counts as biochemical. The method, then:
One of the most extensively studied compounds for sickle cell anemia is GBT-440 (Voxelotor) (Figure 1B).[25] The extent of left-shifting can be assessed by determining the p50 or the partial pressure of oxygen at which half of the total Hb pool is bound to oxygen. We incubated human red blood cells with GBT-440 and observed a ~75% decrease in p50 (from ~28 to ~7 mmHg), consistent with previously reported values (Figure 1D). Experiments were performed using a HemOx analyzer that monitors oxygen saturation via Hb absorbance across a range of dissolved oxygen tensions. Upon further review of the sickle cell anemia literature, we found another compound, hereafter termed HypoxyStat (Figure 1B), which appeared to have a similar p50 as GBT-440.[26] We confirmed that HypoxyStat induced an ~82% decrease in p50 (Figure 1D).
Oxy-hemoglobin dissociation analysis was performed by the UCSF RBC laboratory using the TCS Hemox Analyzer (TCS Medical Products Company, Huntington Valley, PA). Initial pO2 is set to 160 mmHg. Hemoglobin is fully oxygenated under these conditions (HbO% =100). Replacement of air with nitrogen lowers pO2 and is measured by Clark electrode along with the change in the absorbance spectrum of hemoglobin. At a pO2 of 0 mmHg, hemoglobin is fully deoxygenated (HbO% =0). The relation between pO2 and HbO% is plotted, and the pO2 at which HbO% = 50% is defined as P50. The typical sigmoid de-oxygenation curve of normal blood with a P50 of 26–28 mmHg is used as a control for incubation conditions and to ensure proper function of the Hemox analyzer. For left-shifter comparison, the compounds were dissolved in HEPES buffered saline and then incubated for at least one hour at 37C with whole blood before Hemox analysis. A control of whole blood incubated with vehicle is also reported.

Details of series [4]: method as in PMID 28337324. To be noted: Figure 2A, cited from earlier work.
In series [5] the test system is Ndufs4 KO mouse. In words: Ndufs4 KO mouse model of Leigh syndrome (survival, body weight, temperature, behavior, neuropathology). The format is in vivo. From the text:
We continuously bred Ndufs4 Het x Het mice to generate KO and controls for our experiments. Ndufs4+/− and WT mice were used as controls as they are identical in all previously reported assays. Ndufs4 mice were obtained directly from Jackson labs (#027058). Pups were weaned and genotyped at ~21 d after birth. The age of mice at the time of experiments is described throughout the text. Male and female mice were used throughout studies. All cages were provided with food and water, with hydrated gel provided to newly weaned cages. Body weights were recorded at every dosing. Mice were euthanized according to guidelines at 20% drop in peak body weight. All animal studies were approved by the Institutional Animal Care & Use Committee (IACUC) Program at UCSF/Gladstone.
Mice were administered HypoxyStat at 600 mg/kg every other day or 400mg/kg daily via oral gavage. For the disease prevention experiments, KO mice that underwent daily dosing were dosed starting ~P30 for 1 week of 200mg/kg daily, followed by 400mg/kg daily to allow for gradual dose escalation. For the reversal study, KO mice were dosed once with 200mg/kg on postnatal day ~P55, followed by 400mg/kg daily. HypoxyStat was formulated as a suspension at 60 mg/mL, 40mg/ml or 80mg/ml depending on dose in 0.5%HPMC and stored at 4 °C. The formulation was determined to be stable for at least 8 weeks. Animal body weight was taken at time of dosing to determine appropriate dosing volume (10 mL/kg for every other day dosing, 5ml/kg for daily dosing). Vehicle treated mice were administered the same volume of 0.5% HPMC.
Mice were euthanized via CO2 inhalation. To perfuse the whole body, the right atrium was nicked and a needle was inserted into the left ventricle. Ice-cold PBS was slowly injected first, followed immediately by 4% PFA solution. The brain was removed, stored in 4% PFA for 24–48 h, and then washed with PBS for 5 min (3 times). The brains were placed in 70% ethanol followed by paraffin embedding. For paraffin sections, brains were sagittally sectioned at 5 μm thickness. Prior to staining, sections were deparaffinized. Antigen retrieval was performed by heating the slides to boiling temperature in 10 mM sodium citrate solution (pH 6) in a microwave, followed by heating for 10 minutes. The sections were rinsed 3 times for 5 minutes each with PBS. They were then incubated in a blocking solution containing 5% donkey serum (DS) in PBS-Tx (PBS with 0.2% Triton X-100) for 60 minutes at room temperature. After blocking, sections were incubated overnight at 4C with the primary antibody IBA1 (Genetex GTX100042, 1:250) and NeuN (Sigma, MAB377, 1:500). Afterward, the sections were rinsed 3 times for 5 minutes with PBS-Tx. Next, they were incubated with a fluorophore-conjugated secondary antibodies (Invitrogen, A21206 or A31570) for 1 hour at room temperature. Following secondary antibody incubation, the sections were rinsed 3 times for 5 minutes with PBS-Tx, and then once for 5 minutes with PBS. Histology was quantified using either the percentage of Iba1+ positive signal or blinded scoring (on the scale of 1–5).
The open field instrument (San Diego Instruments) was used to measure spontaneous locomotor activity. Mice were placed in open field chambers and allowed to acclimate for 5 min before movement tracking for 20min. Spontaneous locomotor activity was measured based on beam breaks and recorded by the instrument. Age of measurements is +/− 5 days for practical purposes without any age bias between groups.

The mark [6] stands for this setting: GBT-440 daily maximal dosing from P30.

T1 sequence (P69905 2-142 limits assumed): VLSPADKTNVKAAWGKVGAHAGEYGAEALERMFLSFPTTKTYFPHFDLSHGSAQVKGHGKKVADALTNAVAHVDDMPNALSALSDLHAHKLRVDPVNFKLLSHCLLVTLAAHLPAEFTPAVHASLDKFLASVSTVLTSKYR
T1 sequence (P68871 2-147 partner limits assumed): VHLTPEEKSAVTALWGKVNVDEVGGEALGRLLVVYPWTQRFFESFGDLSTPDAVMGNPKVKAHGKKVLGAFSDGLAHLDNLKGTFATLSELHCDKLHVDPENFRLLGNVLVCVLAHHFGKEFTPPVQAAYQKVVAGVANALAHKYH

With `CC(C)n1nccc1-c1ncccc1COc1cccc(O)c1C=O` [GBT-440], the “Hb occupancy” value in series [1] is recorded as 6.5%. Further, the “hypoxia biomarker response compared with HypoxyStat and inhaled hypoxia” value in series [2] is recorded as “significantly blunted response”. Further, in series [3] (human red blood cells incubated 1 h with 10 mM compound, vehicle ~28 mmHg), the p50 is 7.2 mmHg and ~ 7 mmHg. Further, the “decrease in p50” value in series [3] (human red blood cells incubated with compound, vs vehicle) is ~ 75%. For the same molecule, in series [4] (PO), the “Mouse PO blood:plasma” value is 63.2 and the “Mouse PO half-life” value is given as 15.8 h. In series [4] (mouse), the Cmax (as a rule, the maximum level reached in the sampled fluid or tissue) was 2210 nM. The “lifespan of Ndufs4 KO mice vs vehicle” value in series [5] (GBT-440 daily maximal dosing (400 mg/kg after 1 week at 200 mg/kg) from P30) is reported as “did not result in a significant lifespan extension”. Also, in series [5] (setting [6]), the “spontaneous movement (open field), Ndufs4 KO mice” value is “failed to rescue” and the “time on an accelerating rotating rod, Ndufs4 KO mice” value is “failed to rescue”. Besides, the “body temperature of Ndufs4 KO mice” value in series [5] (GBT-440 daily maximal dosing from P30, ~P55) is “failed to rescue”.
